Measurements taken from patent US20250255867A1 (Kadmon Corporation, LLC, priority 2022, published 2025).

Assays:
[1] = tested on: patients with cGVHD; test: Example 1: Lee cGVHD Symptom Scale (LSS); format: in vivo, human
Description: (§1) All responses were assessed by the investigators.
QOL assessment. […] Thirty-five percent of all patients (37% of responders and 32% of nonresponders) reported a clinically meaningful improvement in LSS score on consecutive assessments.
Change From Baseline in Overall Score on Lee cGvHD Symptom Scale at Specified Time Points. Lee cGVHD symptom scale, a patient-reported symptom scale used to measure symptom burden and has 7 subscales (Skin, Eyes and Mouth, Breathing, Eating and Digestion, Muscles and Joints, Energy, and Mental and Emotional) with ratings as follows: 0—Not at all, 1—Slightly, 2—Moderately, 3—Quite a bit, 4—Extremely, with lower values representing better outcome. Score for each subscale was normalized to a score ranged from 0 to 100, where higher score-worse symptoms. An overall score was calculated as average of these 7 subscales. EOT visit was performed within 3 days after the participant's last dose of study drug. Baseline value was defined as valid and last non-missing value obtained within 28 days prior to participant receiving first study medication. […] Analysis was performed on mITT population. Here, ‘number analyzed’=participants with available data for each specified category. Here, ‘0’ in the number analyzed field signifies that none of the participants were available for the analysis at the specified time points.

[2] = tested on: patients with cGVHD; test: Example 1 phase IIa dose-finding study: cGVHD response per 2014 NIH Consensus Criteria (ORR, BOR, DOR, TTR, organ response); format: in vivo, human; settings: for DOR Median (95% CI): responder population
Description: Eligible patients were allogeneic bone marrow transplant or allogeneic hematopoietic cell transplant (alloHCT) recipients of age ≥18 years with persistent cGVHD manifestations after having received one to three prior systemic lines of therapy and who were receiving corticosteroid treatment with or without a calcineurin inhibitor and/or concurrent extracorporeal photopheresis.
(FIG. 1) Before enrollment of the subsequent cohort, safety data in each previous cohort were analyzed after eight patients reached two months of treatment to assure that there was no safety signal. […] No safety concerns were identified, allowing for planned dose escalation.
Progression was defined per the 2014 NIH cGVHD Consensus Criteria. Long-term follow-up was conducted every 8 weeks until study closeout. […] Screening was conducted within 28 days of the first study dose. Response was initially assessed after two cycles; however, this was amended to evaluate response on day 1 of each cycle, starting at cycle 2 day 1.
as §1
Percentage of Participants With Overall Response (OR): OR was defined as the percentage of participants with complete response (CR) or partial response (PR). The OR determination of chronic graft versus host disease (cGVHD) was based on cGVHD response assessment performed by clinicians as per the 2014 National Institutes of Health (NIH) Consensus Development Project for Clinical Trials in cGVHD criteria. CR was defined as the resolution of all manifestations in each organ or site. PR was defined as the improvement in at least 1 organ or site without progression in any other organ or site; and cGVHD progression was defined as the clinically meaningful worsening in 1 or more organs regardless of improvement in other organs.
Duration of Response (DOR). The DOR was defined as the time (in weeks) from first documentation of response to the time of first documentation of deterioration from best response (e.g., CR to PR, or PR to […]). LOR included the response status of unchanged (LOR-U), mixed (LOR-M), or progression (LOR-P). […] Kaplan-Meier was used for the analysis.
Best Overall Response (BOR). BOR was defined as the participants with either a CR or PR or lack of response (LOR), where LOR included the response status of unchanged (LOR-U), mixed (LOR-M), or progression (LOR-P). BOR was assessed per the 2014 NIH Consensus Development Project for Clinical Trials in cGVHD criteria. […] Analysis was performed on mITT population.
Best Response in Each Individual Organ. Best response was defined as the percentage of participants with CR or PR. Response was assessed per the 2014 NIH Consensus Development Project for Clinical Trials in cGVHD criteria; CR was defined as the resolution of all manifestations in each organ or site; PR was defined as the improvement in at least 1 organ or site without progression in any other organ or site. Organ response assessment was performed on 9 individual organs: skin, eyes, mouth, esophagus, upper GI, lower GI, liver, lungs, and joints and fascia. […] Analysis was performed on mITT population. Here, ‘number analyzed’=participants with available data for each specified category.

[3] = Cohort 1 200 mg QD, 17 analyzed
[4] = Cohort 2 200 mg BID, 16 analyzed
[5] = Cohort 3 400 mg QD, 21 analyzed

## CC(C)NC(=O)COc1cccc(-c2nc(Nc3ccc4[nH]ncc4c3)c3ccccc3n2)c1 [Belumosudil, 2-{3-[4-(1H-indazol-5-ylamino)-2-quinazolinyl]phenoxy}-N-(propan-2-yl) acetamide]
[1]; Cohort 1 200 mg QD
  Clinically significant improvement (LSS), nonresponder: 1/6 (17, 0.4 to %
  Clinically significant improvement (LSS), responder: 8/11 (73, 39 to %
[1]; Cohort 1 200 mg QD, decrease ≥7 points
  Clinically significant improvement (LSS), overall: 9 (53, 28 to 77) %
[1]; Cohort 2 200 mg BID
  Clinically significant improvement (LSS), nonresponder: 4/5 (80, 28 to %
  Clinically significant improvement (LSS), overall: 7 (44, 20 to 70) %
  Clinically significant improvement (LSS), responder: 3/11 (27, 6 to %
[1]; Cohort 3 400 mg QD
  Clinically significant improvement (LSS), nonresponder: 2/8 (25, 3 to %
  Clinically significant improvement (LSS), overall: 11 (52, 30 to %
  Clinically significant improvement (LSS), responder: 9/13 (69, 39 to %
[1]; Total
  Clinically significant improvement (LSS), nonresponder: 7/19 (37, 16 to %
  Clinically significant improvement (LSS), responder: 20/35 (57, 39 to %
[1]; Total N=54, listed as KD025
  Clinically significant improvement (LSS), overall: 27 (50, 36 to %
[1]; Total N=54, listed as belumosudil
  Clinically significant improvement (LSS), overall: 50%
[2]; Cohort 1 200 mg QD
  Best response (CR or PR) in skin, percentage of participants: (23%)
  Best response in esophagus, percentage of participants: (50%)
  Best response in joints and fascia, percentage of participants: (55%)
  ORR, % (95% CI): 65%
  ORR, refractory to previous LOT: 7/11 (64, 31 to %
  ORR, severe cGVHD: 8/12 (67, 35 to %
  ORR, ≤2 prior LOTs subgroup: 10/15 (67, 38 to %
  ORR, ≤4 organs involved: 4/8 (50, 16 to %
  DOR Median (95% CI): 40 (8-na* %) weeks
[2]; [3]
  BOR: CR: 0 participants
  BOR: LOR-P: 2 participants
  BOR: LOR-U: 2 participants
  BOR: PR: 11 participants
[2]; Cohort 1 200 mg QD, listed as KD025
  ORR, % (95% CI): 65 (38 to 86) %
[2]; Cohort 2 200 mg BID
  Best response (CR or PR) in skin, percentage of participants: (17%)
  Best response in liver, percentage of participants: (50%)
  ORR, % (95% CI): 69%
  ORR, refractory to previous LOT: 6/9 (67, 30 to %
  ORR, severe cGVHD: 9/14 (64, 35 to %
  ORR, ≤2 prior LOTs subgroup: 5/8 (63, 25 to %
  ORR, ≤4 organs involved: 8/10 (80, 44 to %
  DOR Median (95% CI): 11 (2-35%) weeks
[2]; [4]
  BOR: CR: 0 participants
  BOR: LOR-P: 1 participants
  BOR: LOR-U: 3 participants
  BOR: PR: 11 participants
[2]; Cohort 2 200 mg BID, listed as KD025
  ORR, % (95% CI): 69 (41 to 89) %
[2]; Cohort 3 400 mg QD
  ORR, % (95% CI): 57%
  ORR, refractory to previous LOT: 9/15 (60, 32 to %
  ORR, severe cGVHD: 8/16 (50, 25 to %
  ORR, ≤2 prior LOTs subgroup: 8/12 (67, 35 to %
  ORR, ≤4 organs involved: 7/9 (78, 40 to %
[2]; [5]
  BOR: CR: 0 participants
  BOR: LOR-M: 0 participants
  BOR: LOR-P: 1 participants
  BOR: LOR-U: 4 participants
  BOR: PR: 12 participants
[2]; Total
  ORR, refractory to previous LOT: 63%
  ORR, severe cGVHD: 60%
  ORR, ≤2 prior LOTs subgroup: 66%
  ORR, ≤4 organs involved: 70%
[2]; Total N=54, listed as KD025
  ORR, % (95% CI): 65 (51 to 77) %
[2]; Total, listed as KD025
  ORR, refractory to previous LOT: 22/35 (63, 45 to %
  ORR, severe cGVHD: 25/42 (60, 43 to %
  ORR, ≤2 prior LOTs subgroup: 23/35 (66, 48 to %
  ORR, ≤4 organs involved: 19/27 (70, 50 to %
[2]; pooled cohorts
  ORR among patients with nonsevere cGVHD: 83%
